Laboratory results reported in ChEMBL document CHEMBL1649078, “Novel antiviral C5-substituted pyrimidine acyclic nucleoside phosphonates selected as human thymidylate kinase substrates” (J Med Chem, 2011).

System: Vaccinia virus
Experiment: Antiviral activity against Vaccinia virus infected in human HEL cells assessed as reduction of virus-induced cytopathogenicity after 7 days
Format: functional, organism-based
Details: Orthopoxvirus vaccinia, 168 h

| SMILES | EC50 [µM] |
| --- | --- |
| Cc1cn(C/C=C\CP(=O)(OCOC(=O)C(C)(C)C)OCOC(=O)C(C)(C)C)c(=O)[nH]c1=O | > 40 |
| CC(C)(C)C(=O)OCOP(=O)(C/C=C\Cn1cc(Br)c(=O)[nH]c1=O)OCOC(=O)C(C)(C)C | 90 |
| Nc1nc2c(ncn2COC(CO)CO)c(=O)[nH]1 [GANCICLOVIR] | > 100 |
| Cc1cn(C/C=C/CP(=O)(OCOC(=O)C(C)(C)C)OCOC(=O)C(C)(C)C)c(=O)[nH]c1=O | 30 |
| Nc1ccn(C[C@@H](CO)OCP(=O)(O)O)c(=O)n1 [CIDOFOVIR] | 6 |
| CC(C)(C)C(=O)OCOP(=O)(C/C=C/Cn1cc(Br)c(=O)[nH]c1=O)OCOC(=O)C(C)(C)C | 33 |
| O=c1[nH]c(=O)n([C@H]2C[C@H](O)[C@@H](CO)O2)cc1/C=C/Br [BRIVUDINE] | 1.5 |
